# Measured values: ChEMBL document CHEMBL3046403, “Synthesis and anticancer activity of para-xylyl linked bis-benzimidazolium salts and respective Ag(I) N-heterocyclic carbene complexes” (Med Chem Res, 2013)
# The source made the active and inactive calls. No cut-off for these calls is given here.
# Key:
# Format in all cases: functional, cell-based
# [1] = tested on: HCT-116; assay: Anticancer activity against Homo sapiens (human) HCT116 cells assessed as reduction in cell number after 48 hr by inverted phase contrast microscopic analysis
# [2] = tested on: HCT-116; assay: Anticancer activity against Homo sapiens (human) HCT116 cells assessed as inhibition of cell proliferation after 72 hr by MTT assay; settings: for IC50: HCT-116, 72 h
# [3] = tested on: HL-60; assay: Anticancer activity against Homo sapiens (human) HL60 cells assessed as inhibition of cell proliferation after 72 hr by MTT assay; settings: for IC50: HL-60, 72 h
# [4] = tested on: HL-60; assay: Anticancer activity against Homo sapiens (human) HL60 cells assessed as abnormal morphological changes after 48 hr by inverted phase contrast microscopic analysis
# [5] = tested on: HCT-116; assay: Anticancer activity against Homo sapiens (human) HCT116 cells assessed as abnormal morphological changes after 48 hr by inverted phase contrast microscopic analysis
# [6] = tested on: HCT-116; assay: Anticancer activity against Homo sapiens (human) HCT116 cells assessed as cells with abnormal large number of vacuoles in cytoplasm after 48 hr by inverted phase contrast microscopic analysis
Structure (SMILES),Activity [1],inhibition [2],IC50 [2],inhibition [3],IC50 [3],Activity [4],Activity [5],Activity [6]
CCCCn1c[n+](Cc2ccc(C[n+]3cn(CCCC)c4ccccc43)cc2)c2ccccc21,Active,Dose-dependent effect,18.7 µM,Dose-dependent effect,55.7 µM,Active,,
CCCn1c[n+](Cc2ccc(C[n+]3cn(CCC)c4ccccc43)cc2)c2ccccc21,,Dose-dependent effect,1.4 µM,Dose-dependent effect,49.4 µM,Active,Active,
O=c1[nH]cc(F)c(=O)[nH]1 [FLUOROURACIL],,Dose-dependent effect,,Dose-dependent effect,5.4 µM,,,
CCn1c[n+](Cc2ccc(C[n+]3cn(CC)c4ccccc43)cc2)c2ccccc21,,Dose-dependent effect,0.3 µM,Dose-dependent effect,39.5 µM,Active,,Active
